Reference: patent US20230265037A1, “METHOD FOR MAN[…] CALCIUM CITRATE BY USING SHELL AND APPLICATION THEREOF” (KOREA RESEARCH INSTITUTE OF CHEMICAL TECHNOLOGY, priority 2020, published 2023)
Where “and” joins values, the source holds several entries; their conditions need not be identical. Equal entries are not always repeated.

Assay: Fluorine removal experiment (residual fluorine concentration of filtrate by ion concentration meter)
Details: for removal rate: HF solution 1,000 ppm (experimental value 970 ppm), reacted 30 minutes
Protocol: In order to confirm the fluorine removal rate using the powder or solution prepared in Examples 1 to 3, a fluorine removal experiment was performed by the following method, and the residual fluorine concentration of the filtrate remaining after the experiment was measured using an ion concentration meter and is shown in Tables 2 to 4. At this time, a Metrohm 930 compact IC Flex model from Metrohm was used as the ion concentration meter.
A 50% hydrofluoric acid (HF) solution with a concentration of 1,000 ppm was prepared, and so that the molar ratio of calcium ion:fluoride ion is 1:2, 2:2, 10.56 g and 21.12 g of the mono calcium citrate powder recovered in Example 1 were mixed with 1 L of water to make a solution, the hydrofluoric acid and the solution were reacted for 30 minutes, and the results are shown in Table 2.
A 50% hydrofluoric acid (HF) solution with a concentration of 1,000 ppm was prepared, 4.75 g, 9.5 g, and 19.1 g of the tricalcium citrate powder recovered in Example 2 were mixed with 1 L of water so that the molar ratio of calcium ion:fluoride ion was 1:2, 2:2, and 4:2 to form a slurry, the hydrofluoric acid and the slurry were reacted for 30 minutes, and the results are shown in Table 3. (Tricalcium citrate (C12H10Ca3O14) contains 3 moles of calcium ions per mole, so ⅓ of the theoretical amount is added.)
A 50% hydrofluoric acid (HF) solution with a concentration of 1,000 ppm was prepared, the solution in which the shells and citric acid were dissolved prepared in Example 3 was mixed with 1 L of water and reacted for 30 minutes, and the results are shown in Table 4.

[1] = molar ratio calcium ion:fluoride ion 1:2
[2] = molar ratio calcium ion:fluoride ion 2:2

Row | Compound | removal rate [1] [%] | removal rate [2] [%] | removal rate (molar ratio calcium ion:fluoride ion 4:2) | fluorine removal rate (summary) (summary of Tables 2 and 3) [%]
1 | O=C([O-])CC(O)(CC(=O)[O-])C(=O)[O-].O=C([O-])CC(O)(CC(=O)[O-])C(=O)[O-].[Ca+2].[Ca+2].[Ca+2] [Example 2, tricalcium citrate] | 97.63 | 98.33 | 98.28% and 98.29% | 
2 | O=C([O-])CC(O)(CC(=O)O)C(=O)O.O=C([O-])CC(O)(CC(=O)O)C(=O)O.[Ca+2] [Example 1, mono calcium citrate] | 99.25 | 99.77 |  | ≥ 99
